Experimental data reported in patent publication EP1614683B1, “Indazole compounds and pharmaceutical compositions for inhibiting protein kinases, and methods for their use” (priority 1999, dated 2001).
Like-named read-outs stand apart in the source and are kept apart here.

Experiments:
human FAK (FAKcd409) = molecular target: T1, human FAK (FAKcd409) (Homo sapiens, UniProt Q05397, P410T); assay: FAK fluorescence polarization assay; format: biochemical; details: for inhibition at 1 µM: Table 5, read-out: % Inhibition @ 1 µM FAK
T1 construct: comprises residues methionine 409 to glutamate 689; made in house; host or cells: baculovirus vector expression system (insect cells)
Description: FAK Construct for Assay. The catalytic domain of human FAK (FAKcd409) was expressed using the baculovirus vector expression system. […] The protein was purified using classical chromatography techniques.
FAK HTS utilized the fluorescence polarization assay provided by LJL Biosystems. The kinase reaction contained: 100mM Hepes pH 7.5, 10mM MgCl2, 1mM DTT, 1mM ATP, and 1mg/ml poly Glu-Tyr (4: 1). The reaction is initiated by the addition of 5nM FAKcd409. The reaction is terminated by the addition of EDTA followed by addition of fluor-labelled peptide and anti-phosphotyrosine antibody, both provided by LJL Biosystems. Inhibition results are read on a Analyst (LJL) detector.

[1] = molecular target: T2, phosphorylated Tie-2 (aa 775-1122) (Homo sapiens, UniProt Q02763); assay: TIE-2 spectrophotometric assay; format: biochemical; details: for inhibition at 1 µM: Table 5, bold values spectrophotometric assay, non-bolded DELFIA assay (bold not visible here), read-out: % Inhibition @ 1 µM Tie2-P
T2 construct: 4 to 12 nM phosphorylated Tie-2 (aa 775-1122); made in house; host or cells: insect cells
Procedure, shortened: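 Human phosphorylated Tie-2 kinase activity was measured spectrophotometrically by coupling ADP formation, from phosphoryl transfer to poly(Glu4 Tyr), to NADH oxidation via pyruvate kinase and lactate dehydrogenase. Absorbance loss at 340 nm was read on a Beckman DU650. Reactions held 1 mM phosphoenolpyruvate, 0.24 mM NADH, 40 mM MgCl2, 5 mM DTT, 0.5 mM ATP, and 15 units/mL each of PK and LDH in 100 mM HEPES, pH 7.5.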

[2] = system: lung cancer cells (line MV522); assay: Cancer cell proliferation (MV522) assay; format: cell-based; details: MV522, read-out: MV522 IC50 (µM)
Description: The protocol for assessing cellular proliferation in cancer cells is similar to that used for assessments in HUVEC cells. Two thousand lung cancer cells (line MV522, acquired from American Tissue Cultural Collection) were seeded in growth media (RPMI1640 medium supplemented with 2 mM glutamine and 10% FBS). Cells are allowed to attach for 1 day prior to addition of test agents and /or vehicles. Cells are treated simultaneously with the same test agents used in the HUVEC assay. Cellular proliferation is quantified by MTT dye reduction assay 72 hours after exposure to test agents. The total length of the assay is 4 days vs. 5 for HUVEC cells because MV522 cells are not exposed to starvation medium.

in vitro = in vitro ADME, human; details: human liver microsomes, 5 µM test compound, 37 °C, 2 h
Procedure, shortened: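 HLM diluted to 5 mg/mL in 100 mM KPO4, preincubated 10 min at 37 °C with NADPH-regenerating system. Compound (5 µM final) incubated at 37 °C in triplicate, sampled at 0 and 2 h into ice-cold acetonitrile, then LC-MS analysis.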

[3] = IP, 50 mg/kg, vehicle PEG400:H2O pH 2.3 30:70
in vivo = details: mouse, plasma, ip, 50 mg/kg, pH 2.3
LCK tyrosine kinase = LCK tyrosine kinase (Homo sapiens, UniProt P06239, C224D/P223M); assay: LCK spectrophotometric assay; format: biochemical; details: Table 1; compound concentration 1 µM; read-out: Lck-P* (% inhibition)
Description: The spectrophotometric assay was carried out as described above for VEGF-R2, except for the following changes in concentration: LCK = 60 nM, MgCl2 = 0 mM, poly(E4Y1) = 20 mM.

human CHK1 (FL-CHK1) = molecular target: T3, human CHK1 (FL-CHK1) (Homo sapiens, UniProt O14757); assay: CHK1 coupled spectrophotometric assay; format: biochemical; details: read-out: CHK -1* (% inhibition)
T3 construct: C-terminally His-tagged full-length human CHK1 (FL-CHK1) was expressed using the baculovirus/insect cell system; made in house; host or cells: baculovirus/insect cell system
T3 sequence (O14757 1-476): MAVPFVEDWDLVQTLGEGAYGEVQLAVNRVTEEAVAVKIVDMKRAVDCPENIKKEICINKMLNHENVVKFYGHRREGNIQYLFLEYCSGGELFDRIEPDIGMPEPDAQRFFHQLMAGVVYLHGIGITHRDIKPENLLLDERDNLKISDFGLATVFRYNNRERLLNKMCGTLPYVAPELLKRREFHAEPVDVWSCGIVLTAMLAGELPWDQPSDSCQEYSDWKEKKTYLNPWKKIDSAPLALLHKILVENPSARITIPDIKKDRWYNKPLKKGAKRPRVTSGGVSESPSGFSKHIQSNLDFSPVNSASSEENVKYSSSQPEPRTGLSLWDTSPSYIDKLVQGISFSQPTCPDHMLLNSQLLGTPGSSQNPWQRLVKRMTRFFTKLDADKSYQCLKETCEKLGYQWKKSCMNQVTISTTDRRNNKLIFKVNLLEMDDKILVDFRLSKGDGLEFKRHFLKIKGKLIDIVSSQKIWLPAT
Procedure, shortened: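 His-tagged full-length human CHK1 from baculovirus/insect cells, 10 nM, phosphorylating Syntide-2. ADP formation coupled via PK/LDH with PEP to NADH oxidation, followed as absorbance decrease at 340 nm. Ki from initial rates at varying compound concentrations.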

CDK2/Cyclin A complex = CDK2/Cyclin A complex (Homo sapiens, UniProt P24941); assay: CDK2/Cyclin A assay ([32P]ATP incorporation into Rb fragment); format: biochemical; details: for inhibition at 1 µM: read-out: CDK2 * (% inhibition)
CDK1 = CDK1 (Homo sapiens, UniProt P06493); assay: CDK1 assay (Table 3); format: biochemical; details: compound concentration 1 µM, NI = no significant inhibition
CDK4/Cyclin D3 complex = CDK4/Cyclin D3 complex (Homo sapiens, UniProt P11802); assay: biochemical; details: for inhibition at 1 µM: read-out: CDK4 * (% inhibition)
[4] = molecular target: unphosphorylated VEGF-R2Δ50 (Homo sapiens, UniProt P35968, DEL940-989/E990V); assay: biochemical; details: read-out: FLVK* (% inhibition)
[5] = system: human umbilical vein endothelial cells (HUVEC); assay: HUVEC proliferation assay (VEGF-stimulated, MTT); format: cell-based; details: Homo sapiens, HUVEC, Table 1
human FGF-R1 = human FGF-R1 (Homo sapiens, UniProt P11362, C488A/C584S/L457V); assay: FGF-R spectrophotometric assay; format: biochemical; details: Table 1; compound concentration 1 µM; read-out: FGF-P* (% inhibition)
Description: The spectrophotometric assay was carried out as described above for VEGF-R2, except for the following changes in concentration: FGF-R = 50 nM, ATP = 2 mM, and poly(E4Y1) =15 mM.

[6] = Table 3, read-out: CDK1* (% inhibition)
[7] = + albumin, read-out: HUVEC + albumin IC50

CDK1, sequence (P06493 whole entry, species assumed): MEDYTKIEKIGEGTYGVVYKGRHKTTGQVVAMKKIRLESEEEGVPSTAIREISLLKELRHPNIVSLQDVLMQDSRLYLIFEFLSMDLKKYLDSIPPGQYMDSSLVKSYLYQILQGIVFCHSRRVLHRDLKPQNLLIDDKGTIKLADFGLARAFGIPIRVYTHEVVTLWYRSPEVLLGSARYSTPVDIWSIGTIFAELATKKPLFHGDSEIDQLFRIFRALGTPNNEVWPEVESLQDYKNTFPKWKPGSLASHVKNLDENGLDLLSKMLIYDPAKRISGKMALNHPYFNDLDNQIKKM
CDK1, sequence (P14635 whole entry partner, species assumed): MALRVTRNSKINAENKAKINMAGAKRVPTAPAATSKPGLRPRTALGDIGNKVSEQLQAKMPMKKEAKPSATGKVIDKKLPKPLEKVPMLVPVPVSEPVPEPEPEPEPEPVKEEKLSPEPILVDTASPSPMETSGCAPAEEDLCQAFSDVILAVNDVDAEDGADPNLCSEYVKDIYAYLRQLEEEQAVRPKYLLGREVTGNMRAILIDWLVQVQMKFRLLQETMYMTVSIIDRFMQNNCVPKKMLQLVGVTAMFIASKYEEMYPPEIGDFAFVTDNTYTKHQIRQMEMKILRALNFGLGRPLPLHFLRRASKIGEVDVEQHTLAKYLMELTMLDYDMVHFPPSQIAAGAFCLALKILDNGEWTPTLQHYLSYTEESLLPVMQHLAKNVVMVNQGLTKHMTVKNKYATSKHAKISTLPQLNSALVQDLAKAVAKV
LCK tyrosine kinase, sequence (P06239 223-509 P223M/C224D): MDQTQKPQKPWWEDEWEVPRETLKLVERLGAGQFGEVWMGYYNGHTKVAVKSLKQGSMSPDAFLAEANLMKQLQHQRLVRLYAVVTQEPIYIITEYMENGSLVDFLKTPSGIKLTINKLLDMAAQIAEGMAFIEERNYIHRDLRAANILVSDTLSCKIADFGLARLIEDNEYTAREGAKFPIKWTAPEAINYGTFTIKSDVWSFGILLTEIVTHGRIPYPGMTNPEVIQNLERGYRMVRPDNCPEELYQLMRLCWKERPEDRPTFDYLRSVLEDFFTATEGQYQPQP
T1 sequence (Q05397 409-689 P410T): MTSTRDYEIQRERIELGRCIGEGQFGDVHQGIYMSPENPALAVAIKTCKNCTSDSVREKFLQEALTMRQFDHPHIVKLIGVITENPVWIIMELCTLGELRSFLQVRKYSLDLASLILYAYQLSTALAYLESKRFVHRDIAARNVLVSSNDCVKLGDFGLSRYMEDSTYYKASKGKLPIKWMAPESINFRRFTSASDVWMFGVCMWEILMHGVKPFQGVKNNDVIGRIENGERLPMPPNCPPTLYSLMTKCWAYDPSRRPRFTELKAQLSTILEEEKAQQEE
T2 sequence (Q02763 775-1122): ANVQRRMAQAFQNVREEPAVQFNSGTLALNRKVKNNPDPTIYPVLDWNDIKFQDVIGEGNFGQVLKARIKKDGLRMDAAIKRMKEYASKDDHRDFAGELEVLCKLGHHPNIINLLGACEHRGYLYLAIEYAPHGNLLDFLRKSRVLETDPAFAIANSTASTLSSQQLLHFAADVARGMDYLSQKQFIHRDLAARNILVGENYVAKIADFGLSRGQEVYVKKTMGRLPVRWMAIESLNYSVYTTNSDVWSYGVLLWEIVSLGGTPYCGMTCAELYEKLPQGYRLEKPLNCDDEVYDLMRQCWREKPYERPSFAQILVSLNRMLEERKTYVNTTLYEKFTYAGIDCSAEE
CDK4/Cyclin D3 complex, sequence (P11802 whole entry): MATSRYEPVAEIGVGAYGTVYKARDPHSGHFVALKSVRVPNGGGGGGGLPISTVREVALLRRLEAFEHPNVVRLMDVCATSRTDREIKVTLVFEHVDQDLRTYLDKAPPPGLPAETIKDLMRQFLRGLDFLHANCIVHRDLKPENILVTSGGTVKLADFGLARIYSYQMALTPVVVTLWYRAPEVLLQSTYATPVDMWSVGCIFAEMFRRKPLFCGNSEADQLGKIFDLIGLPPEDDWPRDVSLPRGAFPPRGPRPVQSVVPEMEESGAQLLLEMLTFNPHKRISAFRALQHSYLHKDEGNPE
CDK4/Cyclin D3 complex, sequence (P30281 whole entry partner): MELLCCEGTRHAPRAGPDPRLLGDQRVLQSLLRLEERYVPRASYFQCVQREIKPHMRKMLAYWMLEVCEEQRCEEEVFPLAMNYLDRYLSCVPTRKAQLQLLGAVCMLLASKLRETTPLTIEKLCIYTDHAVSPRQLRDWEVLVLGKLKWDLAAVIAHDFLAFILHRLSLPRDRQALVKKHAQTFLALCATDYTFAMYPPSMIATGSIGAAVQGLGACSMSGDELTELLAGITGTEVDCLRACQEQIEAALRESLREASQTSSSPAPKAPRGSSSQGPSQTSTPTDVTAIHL
unphosphorylated VEGF-R2Δ50, sequence (P35968 with tags, fused parts or gaps DEL940-989/E990V limits assumed): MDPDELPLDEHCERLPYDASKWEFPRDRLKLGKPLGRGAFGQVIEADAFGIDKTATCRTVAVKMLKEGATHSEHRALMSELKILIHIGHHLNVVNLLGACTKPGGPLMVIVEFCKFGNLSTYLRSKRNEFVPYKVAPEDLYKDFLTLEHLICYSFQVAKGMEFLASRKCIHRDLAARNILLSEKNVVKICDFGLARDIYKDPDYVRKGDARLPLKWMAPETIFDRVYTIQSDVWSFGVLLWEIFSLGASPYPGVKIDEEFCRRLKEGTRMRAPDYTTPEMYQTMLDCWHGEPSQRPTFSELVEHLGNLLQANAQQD
human FGF-R1, sequence (P11362 456-766 L457V/C488A/C584S): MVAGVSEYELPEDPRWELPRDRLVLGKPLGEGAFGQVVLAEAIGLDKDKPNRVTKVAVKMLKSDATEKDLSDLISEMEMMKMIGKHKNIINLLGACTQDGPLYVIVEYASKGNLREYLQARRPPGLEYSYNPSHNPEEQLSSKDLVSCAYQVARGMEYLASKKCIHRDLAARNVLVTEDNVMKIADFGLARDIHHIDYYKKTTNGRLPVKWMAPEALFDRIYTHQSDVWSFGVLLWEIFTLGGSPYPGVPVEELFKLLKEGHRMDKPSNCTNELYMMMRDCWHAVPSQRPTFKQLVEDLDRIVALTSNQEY

For `COc1cc(-c2ccc3c(/C=C/c4ccc(OC)c(OC)c4)n[nH]c3c2)ccc1O` [1(a), 3-[E-2-(3,4-Dimethoxy-phenyl)vinyl]-6-(3-methoxy-4-hydroxyphenyl)-1H-indazole], the inhibition at 10 µM (human FAK (FAKcd409); read-out: % Inhibition FAK, compound tested at 10 µM) was 69%, the inhibition at 10 µM ([1]; read-out: % Inhibition Tie2-P, compound tested at 10 µM) was 95% and the IC50 [2] was 0.35 µM. The “% remain (HLM, 2 h)” value (in vitro) was 98%, the T1/2 [3] was 2.4 h and the AUC (in vivo) was 691 ng·h/mL.

In the case of `CCn1nc(C)cc1C(=O)Nc1cc(Nc2ccc3c(/C=C/c4ccccn4)n[nH]c3c2)c(F)cc1C` [Example 48(a), 6-[N.(S-((1-Ethyl-3-methyl-1H-pyrazol-5-yl)carboxamido)-2-fluoro-4-methylphenyl)amino]-3-E-[2-(pyridin-2-yl)ethenyl]-1H-indazole], the inhibition at 1 µM (LCK tyrosine kinase) is reported as 13%, the inhibition at 1 µM (human CHK1 (FL-CHK1)) is reported as 0% and the inhibition at 1 µM (CDK2/Cyclin A complex) is reported as 0%. For the same molecule, the inhibition at 1 µM (human FAK (FAKcd409)) was 11%, the inhibition at 1 µM [1] was 52% and the “% remain (HLM, 2 h)” value (in vitro) was 55%.

For `NC(=O)c1ccc2c(-c3nc4ccccc4[nH]3)n[nH]c2c1` [Example 53(e), 3-(1H-Benzoimidazol-2-yl)-1H-indazole-6-carboxamide], the inhibition at 1 µM (CDK1; [6]) was 13%.

Molecule `O=C(Nc1ccc(O)cc1)c1ccc2c(-c3nc4cc(F)c(F)cc4[nH]3)n[nH]c2c1` [Example 54(a), 3-(5,6-Difluoro-1H-benzoimidazol-2-yl)-N-(4-hydroxyphenyl)-1H-indazole-6-carboxamide] has an inhibition at 1 µM (CDK1; [6]) of 1%.

With `O=C(Nc1ccc(O)cc1)c1ccc2c(-c3nc4ccc5ccccc5c4[nH]3)n[nH]c2c1` [Example 54(e), 3-[1H-Naphtho(1,2-d)imidazol-2-yl]-N-(4-hydroxyphenyl)-1H-indazole-6-carboxamide] the “CDK1* (% inhibition)” value (CDK1; Table 3) was “Nl @ 1µM”.

`CC(C)(C)c1ccc2[nH]c(-c3n[nH]c4cc(C(=O)Nc5ccc(O)cc5)ccc34)nc2c1` [Example 54(g), 3-(5-tert-Butyl-1H-benzoimidazol-2-yl)-N-(4-hydroxyphenyl)-1H-indazole-6-carboxamide] showed an inhibition at 1 µM (CDK1; [6]) of 3%.

In the case of `CCOc1cc(CO)c(-c2ccc3c(-c4nc5ccccc5[nH]4)n[nH]c3c2)cc1OC` [Reference Example 24(m), 3-1H-Benzoimidazol-2-yl-6-(2-(hydroxymethyl)-4-ethoxy-5-methozy-phenyl)-1H-indazole], the inhibition at 1 µM (CDK2/Cyclin A complex) is reported as 17% and the inhibition at 1 µM (CDK4/Cyclin D3 complex) is reported as 16%.

With `CCOc1cc(-c2ccc3c(/C=C/c4ccccc4)n[nH]c3c2)ccc1O` [Reference Example 27(h), 6-[3-ethoxy-4-hydroxyphenyl]-3-E-styryl-1H-indazole] the inhibition at 1 µM (CDK1; [6]) was 84%.

`OCCOc1cc(-c2ccc3c(/C=C/c4ccccc4)n[nH]c3c2)ccc1O` [Reference Example 27(i), 6-[3-(2-hydroxyethoxy)-4-hydroxyphenyl]-3-E-styryl-1H-indazole] showed an inhibition at 1 µM (CDK2/Cyclin A complex) of 73%, an inhibition at 1 µM (CDK1; [6]) of 85% and an inhibition at 1 µM (CDK4/Cyclin D3 complex) of 92%.

`Oc1ccc(-c2ccc3c(/C=C/c4ccccc4)n[nH]c3c2)cc1` [Reference Example 28(b), 6-(4-hydroxyphenyl)-3-E-styryl-1H-indazole] showed an inhibition at 1 µM (CDK2/Cyclin A complex) of 97%, an inhibition at 1 µM [4] of 96% and an inhibition at 1 µM (CDK4/Cyclin D3 complex) of 98%.

With `Clc1ccc(/C=C/c2n[nH]c3cc(-c4ccncc4)ccc23)cc1` [Reference Example 29(c)] the inhibition at 1 µM (CDK1; read-out: CDK1* (% inhibition), Table 3) was 56%.

`Clc1cccc(/C=C/c2n[nH]c3cc(-c4ccncc4)ccc23)c1` [Reference Example 29(i), 6-pyrid-4-yl-3-E-[2-(3-chlorophenyl)ethenyl]-1H-indazole] gave a Ki (CDK2/Cyclin A complex; Table 3, read-out: CDK2* (Ki)) of 3100 nM and a Ki (CDK4/Cyclin D3 complex) of 5000 nM.

With `Cc1nc(/C=C/c2n[nH]c3cc(-c4ccncc4)ccc23)cs1` [Reference Example 29(j), 6-pyrid-4-yl-3-E-[2-(2-methylthiazol-4-yl)ethenyl]-1H-indazole] the inhibition at 1 µM (CDK1; [6]) was 31%.

`Fc1cc(F)cc(/C=C/c2n[nH]c3cc(-c4ccncc4)ccc23)c1` [Reference Example 29(m), 6-pyrid-4-yl-3-E-[2-(3,5-difluorophenyl)ethenyl]-1H-indazole] showed an inhibition at 1 µM (CDK1; [6]) of 54%.

For `FC(F)(F)Oc1cccc(/C=C/c2n[nH]c3cc(-c4ccncc4)ccc23)c1` [Reference Example 29(p), 6-pyrid-4-yl-3-E-[2-(3-trfluorometboxyphenyl)ethenyl]-1H-indazole], the inhibition at 1 µM (CDK1; [6]) was 6%.

With `Cc1cc(C(=O)Nc2cccc(C(=O)c3ccc4c(/C=C/c5ccccn5)n[nH]c4c3)c2)n(C)n1` [Reference Example 41(p), 6-[3-((1,3-Dimethyl-1H-pyrazol-5-yl)carboxamido)benzoyl]-3-E-[2-(pyridin-2-yl)ethenyl]-1H-indazole] the inhibition at 1 µM (LCK tyrosine kinase) was 49%, the inhibition at 1 µM (human CHK1 (FL-CHK1)) was 0% and the inhibition at 1 µM (CDK2/Cyclin A complex) was 6%. It also gave an inhibition at 1 µM (human FAK (FAKcd409)) of 9%, an inhibition at 1 µM [1] of 49% and an IC50 [5, 7] of 2.6 nM. The IC50 ([5]; read-out: HUVEC IC50) was 0.27 nM, the “% remain (HLM, 2 h)” value (in vitro) was 62% and the inhibition at 1 µM (CDK4/Cyclin D3 complex) was 3%.

Work on `C=CCn1nc(C)cc1C(=O)Nc1cccc(C(=O)c2ccc3c(/C=C/c4ccccn4)n[nH]c3c2)c1` [Reference Example 41(t), 6-[3-((1-Allyl-3-methyl-1H-pyrazol-5-yl)carboxamido)benzoyl]-3-E-[2-(pyridin-2-yl)ethenyl]-1H-indazole] yielded an inhibition at 1 µM (human FGF-R1) of 85%, an inhibition at 1 µM (LCK tyrosine kinase) of 51% and an inhibition at 1 µM (human CHK1 (FL-CHK1)) of 0%. For the same molecule, the inhibition at 1 µM (CDK2/Cyclin A complex) was 1%, the inhibition at 1 µM (human FAK (FAKcd409)) was 9% and the inhibition at 1 µM [1] was 51%. For the same molecule, the IC50 [5, 7] was 3.8 nM, the “% remain (HLM, 2 h)” value (in vitro) was 87% and the inhibition at 1 µM (CDK4/Cyclin D3 complex) was 2%.
